In patent US20160010086A1, “OLIGOMERIC COMPOUNDS AND EXCIPIENTS” (ISIS PHARMACEUTICALS, INC., priority 2009, published 2016):

How the values were obtained:
PTEN mRNA = assay: Antisense activity (pharmacodynamics) of ISIS 116847 in mouse liver; type: in vivo, mice
Description: Tissues are homogenized in guanidine isothyocyanate buffer (4 M guanidine isothiocyanate, 25 mM EDTA, 1 M β-mercaptoethanol, 50 mM Tris-HCl, pH 6) immediately following sacrifice. RNA is extracted using RNeasy columns (Qiagen) according to manufacturer's protocol. RNA is eluted from the columns with water. RNA samples are analyzed by fluorescence-based quantitative RT-PCR using an Applied Biosystems 7700 sequence detector. Levels of target RNAs as well as those of cyclophilin A, a housekeeping gene, are determined. Target RNA levels were normalized to cyclophilin levels for each RNA sample. Primers used for determination of PTEN RNA level are as follows: FP 5′ […] 3′ (SEQ ID NO: 3), RP 5′ […] 3′ (SEQ ID NO: 4), and PR 5′ 6FAM-[…]-TAMRA 3′(SEQ ID NO 5). Primers used for determination of cyclophilin A RNA level are as follows: FP 5′ TCGCCGCTTGCTGCA 3′(SEQ ID NO: 6), RP 5′ ATCGGCCGTGATGTCGA 3′(SEQ ID NO: 7), and PR 5′ 6FAM-[…]-TAMRA 3′(SEQ ID NO: 8).

[1] = mouse, in vivo

With “5′-CTGCT agcctctgga TTTGA-3′ (CTGCTAGCCTCTGGATTTGA; chemistry not given here) [ISIS 116847]” the “activity of the active antisense oligonucleotide” value (PTEN mRNA; co-administered with a nonsense oligonucleotide) was “enhanced”, the “pharmacodynamics with increased liver drug concentration” value (PTEN mRNA; slower infusion, lowest doses) was “did not provide improved pharmacodynamics” and the “uptake in whole liver” value [1] was “favored at lower plasma concentrations”.
